The text below walks through data of ChEMBL document CHEMBL3621140, “Sulfonamide derivatives containing dihydropyrazole moieties selectively and potently inhibit MMP-2/MMP-9: Design, synthesis, inhibitory activity and 3D-QSAR analysis” (Bioorg Med Chem Lett, 2015).

SMILES strings stand for the structures.

The subject of data set [1] is MCF7. Nature of the data set: Antiproliferative activity against human MCF7 cells incubated for 48 hrs by MTT assay. In kind it is functional, cell-based. As to conditions: MCF7, 48 h. (Tetrazolium assays rely on reduction of a dye to a coloured formazan, in cell work by metabolically active cells.)
For data set [2], the system named is HeLa. Nature of the data set: Antiproliferative activity against human HeLa cells incubated for 48 hrs by MTT assay. In kind it is functional, cell-based.
In data set [3] the test system is HepG2. Nature of the data set: Antiproliferative activity against human HepG2 cells incubated for 48 hrs by MTT assay. It is filed as functional, cell-based. As to conditions: HepG2, 48 h.
Data set [4] addresses 72 kDa type IV collagenase (Homo sapiens, UniProt P08253). Nature of the data set: Inhibition of APMA-activated human recombinant MMP2 incubated for 5 mins using 4-nitrophenylacetate substrate by esterase assay.
In data set [5] the target is Matrix metalloproteinase-9 (Homo sapiens, UniProt P14780). Nature of the data set: Inhibition of APMA-activated human recombinant MMP9 incubated for 5 mins using 4-nitrophenylacetate substrate by esterase assay.
Sequence of Matrix metalloproteinase-9 (P14780 whole entry): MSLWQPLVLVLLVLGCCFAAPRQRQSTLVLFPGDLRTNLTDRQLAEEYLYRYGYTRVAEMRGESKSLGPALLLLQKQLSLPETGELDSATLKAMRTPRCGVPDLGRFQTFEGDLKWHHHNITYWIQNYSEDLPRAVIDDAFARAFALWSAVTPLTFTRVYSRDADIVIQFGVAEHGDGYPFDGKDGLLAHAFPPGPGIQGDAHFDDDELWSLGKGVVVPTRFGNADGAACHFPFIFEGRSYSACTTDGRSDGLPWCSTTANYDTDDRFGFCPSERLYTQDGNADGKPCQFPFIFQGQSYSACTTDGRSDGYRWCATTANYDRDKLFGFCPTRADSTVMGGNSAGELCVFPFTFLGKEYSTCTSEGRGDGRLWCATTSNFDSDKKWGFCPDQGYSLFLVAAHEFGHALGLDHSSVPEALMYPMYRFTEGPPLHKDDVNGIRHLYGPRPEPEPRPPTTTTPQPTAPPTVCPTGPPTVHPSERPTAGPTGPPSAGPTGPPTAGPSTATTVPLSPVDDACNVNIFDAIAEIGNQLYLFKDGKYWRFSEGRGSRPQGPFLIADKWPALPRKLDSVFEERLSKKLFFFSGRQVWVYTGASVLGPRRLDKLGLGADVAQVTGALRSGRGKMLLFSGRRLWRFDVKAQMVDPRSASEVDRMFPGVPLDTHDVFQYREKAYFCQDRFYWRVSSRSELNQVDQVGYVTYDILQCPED
The nature of data set [6]: Cytotoxicity against HEK293T cells incubated for 48 hrs by MTT assay. As to conditions: human. In kind it is cell-based, HEK-293T.
For data set [7], the system named is A549. The data set can be described thus: cells. As to conditions: Homo sapiens, A549, 48 h.
Data set [8] concerns A549. Nature of the data set: Induction of apoptosis in human A549 cells assessed as viable cells at 16 uM by AnnexinV-FITC and propidium iodide staining based flow cytometry (reference value: 85.3%). In kind it is functional. To be noted: read-out: Activity. (In general: Flow cytometry measures light scatter and fluorescence of single cells or particles in a stream.)
The test system of data set [9] is A549. Nature of the data set: Induction of apoptosis in human A549 cells assessed as early apoptotic cells level at 16 uM by AnnexinV-FITC and propidium iodide staining based flow cytometry (reference value: 5.08%). In kind it is functional.
Data set [10] relates to A549. The data set can be described thus: Induction of apoptosis in human A549 cells assessed as late apoptotic cells level at 16 uM by AnnexinV-FITC and propidium iodide staining based flow cytometry (reference value: 8.81%). In kind it is functional.
Data set [11] has as its system A549. The data set can be described thus: Induction of apoptosis in human A549 cells assessed as necrotic cells level at 16 uM by AnnexinV-FITC and propidium iodide staining based flow cytometry (reference value: 0.964%). In kind it is functional.
The test system of data set [12] is A549. Nature of the data set: Induction of apoptosis in human A549 cells assessed as viable cells at 4 uM by AnnexinV-FITC and propidium iodide staining based flow cytometry (reference value: 85.3%). It is filed as functional. As to conditions: read-out: Activity.
For data set [13], the system named is A549. The data set can be described thus: Induction of apoptosis in human A549 cells assessed as early apoptotic cells level at 4 uM by AnnexinV-FITC and propidium iodide staining based flow cytometry (reference value: 5.08%). It is filed as functional.
The test system of data set [14] is A549. Nature of the data set: Induction of apoptosis in human A549 cells assessed as late apoptotic cells level at 4 uM by AnnexinV-FITC and propidium iodide staining based flow cytometry (reference value: 8.81%). In kind it is functional.
Data set [15] concerns A549. Nature of the data set: Induction of apoptosis in human A549 cells assessed as necrotic cells level at 4 uM by AnnexinV-FITC and propidium iodide staining based flow cytometry (reference value: 0.964%). It is filed as functional.
For data set [16], the system named is A549. The data set can be described thus: Induction of apoptosis in human A549 cells assessed as viable cells at 2 uM by AnnexinV-FITC and propidium iodide staining based flow cytometry (reference value: 85.3%). To be noted: read-out: Activity. It is filed as functional.
Data set [17] has as its system A549. The data set can be described thus: Induction of apoptosis in human A549 cells assessed as early apoptotic cells level at 2 uM by AnnexinV-FITC and propidium iodide staining based flow cytometry (reference value: 5.08%). It is filed as functional.
Data set [18] concerns A549. The data set can be described thus: Induction of apoptosis in human A549 cells assessed as late apoptotic cells level at 2 uM by AnnexinV-FITC and propidium iodide staining based flow cytometry (reference value: 8.81%). It is filed as functional.
The test system of data set [19] is A549. The data set can be described thus: Induction of apoptosis in human A549 cells assessed as necrotic cells level at 2 uM by AnnexinV-FITC and propidium iodide staining based flow cytometry (reference value: 0.964%). In kind it is functional.
The subject of data set [20] is A549. The data set can be described thus: Induction of apoptosis in human A549 cells by AnnexinV-FITC and propidium iodide staining based flow cytometry. In kind it is functional, cell-based.

Sequence of 72 kDa type IV collagenase (P08253 whole entry): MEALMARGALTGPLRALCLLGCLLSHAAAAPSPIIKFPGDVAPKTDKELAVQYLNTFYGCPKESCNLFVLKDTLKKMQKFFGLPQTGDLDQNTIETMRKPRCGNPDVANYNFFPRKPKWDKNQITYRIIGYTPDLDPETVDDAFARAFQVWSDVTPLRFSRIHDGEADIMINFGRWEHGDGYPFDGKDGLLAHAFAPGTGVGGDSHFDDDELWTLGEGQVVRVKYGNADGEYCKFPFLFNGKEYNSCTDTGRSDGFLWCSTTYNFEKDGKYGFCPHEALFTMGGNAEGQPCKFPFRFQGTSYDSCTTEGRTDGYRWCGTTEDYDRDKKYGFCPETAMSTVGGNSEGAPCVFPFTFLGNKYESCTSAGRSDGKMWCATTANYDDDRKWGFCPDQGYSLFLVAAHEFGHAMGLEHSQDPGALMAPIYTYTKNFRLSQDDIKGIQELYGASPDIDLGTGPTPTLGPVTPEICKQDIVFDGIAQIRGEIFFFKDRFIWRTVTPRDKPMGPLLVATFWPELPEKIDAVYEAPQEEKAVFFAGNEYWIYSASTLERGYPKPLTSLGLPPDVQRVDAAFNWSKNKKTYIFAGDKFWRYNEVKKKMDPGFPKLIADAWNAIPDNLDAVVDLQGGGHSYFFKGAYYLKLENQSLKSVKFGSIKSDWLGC

Usually CC50 stands for the concentration that lowers cell viability or growth by half. High values mean lower toxicity to the cells, low ones greater toxicity to the cells. For `Cc1ccccc1C1=NN(c2ccc(S(N)(=O)=O)cc2)C(c2cccc3ccccc23)C1` (configuration not stated), the IC50 in data set [1] turned out to be 10 µM; in data set [2], 6.37 µM; in [3] it was 5.38 µM; in [4] (read-out: IC50), 2.91 µM; in [5], 5.43 µM; in data set [7] it was 2.84 µM. In data set [6], this molecule yielded a cytotoxic concentration (CC50) at 48 h of 51.2 µM.
`Cc1ccc(C2=NN(c3ccc(S(N)(=O)=O)cc3)C(c3cccc4ccccc34)C2)cc1` (configuration not stated): the IC50 in data set [1] was found to be 9.89 µM; in [2], 8.61 µM; in data set [3], 7.04 µM; in [4] (read-out: IC50) it was 6.81 µM; in data set [5] it was 16 µM; in [7] it was 7.77 µM. The molecule further gave a CC50 at 48 h in [6] of 51.3 µM.
As for `COc1ccc(C2=NN(c3ccc(S(N)(=O)=O)cc3)C(c3ccc4ccccc4c3)C2)cc1` (configuration not stated), the IC50 in [1] worked out at 50.6 µM; in [2], 35.4 µM; in [3], 22.3 µM; in data set [4] (read-out: IC50), 9.9 µM; in data set [5] it was 19 µM; in [7], 9.31 µM. For the same molecule, the CC50 at 48 h in data set [6] was 45.4 µM.
Regarding `NS(=O)(=O)c1ccc(N2N=C(c3ccccc3Cl)CC2c2cccc3ccccc23)cc1` (configuration not stated), the IC50 in data set [1] is 23.6 µM; in [2], 29.1 µM; in data set [3] it was 10 µM; in data set [4] (read-out: IC50), 8.63 µM; in [4] (read-out: pIC50 (converted)) it was 8.51 µM; in data set [5] it was 12 µM. For the same molecule, the IC50 in [7] turned out to be 7.38 µM. The same molecule gave a CC50 at 48 h in [6] of 53.1 µM.
Turning to `NS(=O)(=O)c1ccc(N2N=C(c3cccc(Br)c3)CC2c2ccc3ccccc3c2)cc1` (configuration not stated), the IC50 in data set [1] turned out to be 9.15 µM; in data set [2] it was 23.7 µM; in data set [3], 29 µM; in [4] (read-out: IC50) it was 17.8 µM; in [5] it was 13.9 µM; in data set [7], 10.3 µM. This molecule returned a half-maximal cytotoxic concentration (CC50) at 48 h in data set [6] of 47 µM.
In the case of `CCOc1ccc(C2=NN(c3ccc(S(N)(=O)=O)cc3)C(c3cccc4ccccc34)C2)cc1` (configuration not stated), the IC50 in [1] is 35.1 µM; in data set [2], 18.5 µM; in data set [3], 8.66 µM; in [4] (read-out: IC50), 0.81 µM; in [5] it was 3.19 µM; in data set [7] it was 3.33 µM. Moreover, in data set [6], the CC50 at 48 h was 59.5 µM.
As for `NS(=O)(=O)c1ccc(N2N=C(c3ccc(F)cc3)CC2c2ccc3ccccc3c2)cc1` (configuration not stated), the IC50 in [1] came out at 12.3 µM; in data set [2] it was 26.1 µM; in [3], 20.7 µM; in data set [4] (read-out: IC50) it was 16.8 µM; in data set [5], 19.8 µM; in [7] it was 6.95 µM. The molecule also gave a CC50 at 48 h in data set [6] of 49.5 µM.
In the case of `NS(=O)(=O)c1ccc(N2N=C(c3ccccc3Cl)CC2c2ccc3ccccc3c2)cc1` (configuration not stated), the IC50 in data set [1] amounted to 8.64 µM; in data set [2], 16.4 µM; in data set [3], 31.1 µM; in data set [4] (read-out: IC50), 14.8 µM; in [5] it was 8.72 µM; in data set [7], 2.16 µM. For the same molecule, the midpoint of cytotoxicity in data set [6], the CC50 at 48 h, lay at 49.9 µM.
On to `NS(=O)(=O)c1ccc(N2N=C(c3ccccc3)CC2c2ccc3ccccc3c2)cc1` (configuration not stated), for which the IC50 in data set [1] came to 21.6 µM; in data set [2], 13 µM; in data set [3], 17.9 µM; in data set [4] (read-out: IC50), 12.6 µM; in data set [5], 33.8 µM; in data set [7], 8.42 µM. This molecule also yielded a CC50 at 48 h in data set [6] of 50.5 µM.
Consider `NS(=O)(=O)c1ccc(N2N=C(c3ccc(Cl)cc3)CC2c2cccc3ccccc23)cc1` (configuration not stated), for which the IC50 in data set [1] was determined as 18 µM; in data set [2], 11.5 µM; in [3], 16.4 µM; in data set [4] (read-out: IC50), 2.7 µM; in [5], 5.47 µM; in [7], 2.98 µM. Also, it took 49.2 µM to reach half-maximal cytotoxicity in data set [6] (CC50 at 48 h).
Take `CCOc1ccc(C2=NN(c3ccc(S(N)(=O)=O)cc3)C(c3ccc4ccccc4c3)C2)cc1` (configuration not stated): the IC50 was determined as 38.2 µM in data set [1]; 35.4 µM in data set [2]; 9.17 µM in [3]; 14.9 µM in [4] (read-out: IC50); 18.3 µM in [5]; 17.8 µM in [7]. The molecule also gave a CC50 at 48 h in [6] of 53.8 µM.
For the molecule `Cc1ccc(C2=NN(c3ccc(S(N)(=O)=O)cc3)C(c3cccc4ccccc34)C2)c(C)c1` (configuration not stated), the IC50 in data set [1] came out at 18.1 µM; in data set [2], 12.1 µM; in [3], 6.99 µM; in data set [4] (read-out: IC50) it was 0.21 µM; in [5], 1.87 µM; in data set [7], 1.9 µM. The molecule also yielded a CC50 at 48 h in [6] of 52.5 µM. The viability at 16 µM in data set [8] was 78.3%. Further, the Activity turned out to be 3.88% in data set [9]; 16.9% in data set [10]; 0.868% in data set [11]; 4.84% in data set [13]; 12.9% in data set [14]; 1.14% in data set [15]. The Activity was 5.91% in [17], 10.2% in [18], 1.1% in [19] and “Dose-dependent effect” in [20]. The viability at 4 µM in data set [12] came out at 81.1%. In addition, the viability at 2 µM in data set [16] came to 82.8%.
`NS(=O)(=O)c1ccc(N2N=C(c3cccc(Br)c3)CC2c2cccc3ccccc23)cc1` (configuration not stated): the IC50 was 28.8 µM in data set [1]; 28.8 µM in data set [2]; 14.9 µM in [3]; 11.4 µM in data set [4] (read-out: IC50); 11.2 µM in data set [4] (read-out: pIC50 (converted)); 7.97 µM in [5]. The molecule also had an IC50 in [7] of 8.19 µM. The midpoint of cytotoxicity in data set [6], the CC50 at 48 h, lay at 42.2 µM.
For `NS(=O)(=O)c1ccc(N2N=C(c3ccccc3)CC2c2cccc3ccccc23)cc1` (configuration not stated), the IC50 in data set [1] was found to be 22.6 µM; in data set [2], 20.2 µM; in data set [3], 19.1 µM; in data set [4] (read-out: IC50) it was 7.92 µM; in data set [5], 10.9 µM; in [7], 12.9 µM. For the same molecule, the 50% cytotoxic concentration (CC50) at 48 h in data set [6] was 51.4 µM.
Take `COc1cccc(C2=NN(c3ccc(S(N)(=O)=O)cc3)C(c3ccc4ccccc4c3)C2)c1` (configuration not stated): the IC50 is 13.6 µM in data set [1]; 36.5 µM in data set [2]; 26 µM in [3]; 2.15 µM in data set [4] (read-out: IC50); 4.68 µM in data set [5]; 8.67 µM in data set [7]. In data set [6], this molecule had a 50% cytotoxic concentration (CC50) at 48 h of 49.4 µM.
With `NS(=O)(=O)c1ccc(N2N=C(c3ccc(Cl)cc3)CC2c2ccc3ccccc3c2)cc1` (configuration not stated), the IC50 in data set [1] came to 12.4 µM; in [2] it was 19.2 µM; in [3], 25 µM; in data set [4] (read-out: IC50), 3.6 µM; in [5], 5.88 µM; in data set [7], 2.76 µM. For the same molecule, it took 54.8 µM to reach half-maximal cytotoxicity in [6] (CC50 at 48 h).
